Source: patent US12678423B2, “Therapeutic agent for amyotrophic lateral sclerosis and composition for treatment” (KEIO UNIVERSITY, priority 2016, dated 2026)

Key:
Assay type in all cases: cell-based, human
[1] = system: motor neurons induced to differentiate from iPS cells derived from ALS patients (FUS-ALS) having a mutation in FUS; assay: Ectopic localization of FUS protein in the cytoplasm, FUS-ALS motor neurons
Excerpt: Therefore, on day 40 from the start of differentiation induction, each differentiation-induced motor neuron in Example I-1 was immunostained and the localization of FUS protein in the cytoplasm was examined.
(§1) Using the differentiation-induced motor neurons in Example I-1, drugs which cause the ALS phenotype to be restored were screened from existing drug libraries with the neurite length, ectopic localization of FUS protein, stress granule formation, LDH leakage ratio, CV-caspase 3-positive ratio, phosphorylated TDP-43 protein inclusion formation, and the like as indices.
(§2) As a result of the screening, ropinirole was found as a promising therapeutic agent for ALS. Tables 5 and 6 show the improvement ratio (%) in the ALS phenotype due to adding ropinirole to the medium. Here, ropinirole was added to the medium on days 35 to 40 from the start of the differentiation induction of each iPS cell. Here, it is assumed that days 35 to 40 from the start of differentiation induction correspond to the early stage of the ALS disease.
(§3) The improvement ratio (%) of the ALS phenotype was calculated by Equation (1).
(§4) [formula] [In Equation (1), A represents a measurement value of motor neurons induced to differentiate from iPS cells derived from ALS patients in the absence of ropinirole, and B represents a measurement value of motor neurons induced to differentiate from iPS cells derived from ALS patients in the presence of ropinirole, and C represents a measurement value of motor neurons induced to differentiate from iPS cells derived from healthy subjects in the absence of ropinirole.]
(§5) Subsequently, in the same manner as above, the efficacy in cases of administering lower concentrations of ropinirole was evaluated.
(§6) Each drug was added to the medium at a final concentration of 10 μM.

[2] = system: motor neurons induced to differentiate from iPS cells derived from ALS patients (FUS-ALS) having a mutation in FUS; assay: LDH leakage ratio, FUS-ALS motor neurons
Protocol: The leakage amount of LDH into the medium is an indicator of cytotoxicity. For measurement of the LDH leakage ratio, a commercially available kit (model “LDH Cytotoxicity Detection Kit”, Takara Bio Inc.) was used.
Here, ropinirole was added to the medium on days 35 to 40 from the start of the differentiation induction of each iPS cell. Here, it is assumed that days 35 to 40 from the start of differentiation induction correspond to the early stage of the ALS disease.
as §3, §4, §5, §6

[3] = system: motor neurons induced to differentiate from iPS cells derived from ALS patients (FUS-ALS) having a mutation in FUS; assay: Neurite length in late stage ALS disease, FUS-ALS (Example I-9); conditions: final concentration 1 μM, added days 50 to 62 from start of differentiation induction, FIG. 14
Protocol: The efficacy of ropinirole was evaluated in the same manner as in Example I-8, except that the timing of adding ropinirole was changed to days 50 to 62 from the start of the differentiation induction of each iPS cell. It is assumed that days 50 to 62 after the start of induction of differentiation correspond to the late stage of the ALS disease.
Specifically, ropinirole was added to a medium of motor neurons induced to differentiate from iPS cells derived from ALS patients (FUS-ALS) having a mutation in FUS and motor neurons induced to differentiate from iPS cells derived from ALS patients (TDP-43-ALS) having a mutation in TDP-43 and the changes over time in the neurite length were measured. The measurement of neurite length was carried out in the same manner as in Example I-2. Ropinirole was added to the medium at a final concentration of 1 μM.
FIG. 14(a) is a graph showing the results of measurement of the changes over time in the neurite length of each motor neuron. In FIG. 14(a), the vertical axis represents the neurite length (relative value), the horizontal axis represents the number of days of culturing from the start of differentiation induction, and “+ROPI” represents the result of adding ropinirole to the medium. In addition, FIG. 14(b) is a graph enlarging the boxed portion of the graph of FIG. 14(a). […]

[4] = system: motor neurons differentiated from iPS cells derived from 24 patients having sporadic ALS (SALS); assay: CV caspase 3-positive ratio, 24 sporadic ALS patient models (Example III-5); conditions: final concentration 1 μM for 5 days
Protocol: In the same manner as in Example II-1, iPS cells derived from 24 patients having sporadic ALS (SALS) were differentiated into motor neurons and then ropinirole with a final concentration of 1 μM was added to the medium. In addition, for comparison, a group for which ropinirole was not added to the medium was prepared. In addition, as a control, a group for which iPS cells derived from healthy subjects were differentiated into motor neurons in the same manner as in Example I-1 was used. No ropinirole was added to the medium of these motor neurons. As the iPS cells derived from a healthy subject, the same cells as used in Example I-1 were used.
Below, each differentiated motor neuron is identified by the patient number from whom the neuron was derived.
In all of the motor neurons, the addition period of ropinirole was 5 days. The time to start the addition of ropinirole varied depending on the case and was from day 30 to day 70 from the start of the differentiation induction of each of the iPS cells.
Subsequently, for each motor neuron on day 5 after the addition of ropinirole, the ratio of CV caspase 3-positive neurons was measured in the same manner as in Example I-3.
FIG. 15 is a graph showing the measurement results of the ratio of CV caspase 3-positive neurons. […]

[5] = system: motor neurons induced to differentiate from iPS cells derived from ALS patients (FUS-ALS) having a mutation in FUS; assay: Neurite length, FUS-ALS motor neurons (screening, Example I-8)
Protocol: For each differentiation-induced motor neuron in Example I-1, the changes over time in the neurite length were measured. A Bio station CT (Nikon Corp.) was used to measure the neurite length over time. FIG. 1 is a graph showing measurement results of changes over time in the neurite length. The vertical axis represents neurite length (relative value), and the horizontal axis represents the number of days of culturing from the start of differentiation induction.
as §1, §2, §3, §4, §5, §6

[6] = final concentration 0.1 μM, added days 35 to 40
[7] = final concentration 1 μM, added days 35 to 40
[8] = final concentration 10 μM, added days 35 to 40

CCCN(CCC)CCc1cccc2c1CC(=O)N2 [Ropinirole, 4-(2-di-n-propylaminoethyl)-2(3H)-indole]
Ectopic localization of FUS protein improvement ratio ([1]; final concentration 0.1 nM): 20.2%
Ectopic localization of FUS protein improvement ratio ([1]; final concentration 1 nM): 45.8%
Ectopic localization of FUS protein improvement ratio ([1]; final concentration 10 nM): 51.2%
Ectopic localization of FUS protein improvement ratio [1, 6]: 55.8%
Ectopic localization of FUS protein improvement ratio [1, 7]: 54.3%
Ectopic localization of FUS protein improvement ratio [1, 8]: 74.4%
LDH leakage ratio improvement ratio ([2]; final concentration 0.1 nM): 10.1%
LDH leakage ratio improvement ratio ([2]; final concentration 1 nM): 31.1%
LDH leakage ratio improvement ratio ([2]; final concentration 10 nM): 39.4%
LDH leakage ratio improvement ratio [2, 6]: 33.5%
LDH leakage ratio improvement ratio [2, 7]: 48.0%
LDH leakage ratio improvement ratio [2, 8]: 47.6%
Neurite length (changes over time), late stage [3]: neuroprotective action (maintenance of neurite length)
Share of SALS cases in which the increase in CV caspase 3-positive ratio was suppressed ([4]; 16 of 22 cases): 72.73 % of SALS cases
Cases in which the increase in CV caspase 3-positive ratio was suppressed ([4]; among 22 SALS cases with confirmed increase (of 24), FIG. 15): 16 cases
Neurite length improvement ratio ([5]; final concentration 0.1 nM): 3.22%
Neurite length improvement ratio ([5]; final concentration 1 nM): 32.3%
Neurite length improvement ratio ([5]; final concentration 10 nM): 45.8%
Neurite length improvement ratio ([5]; final concentration 0.1 μM, added days 35 to 40 from start of differentiation induction): 43.3%
Neurite length improvement ratio [5, 7]: 58.3%
Neurite length improvement ratio [5, 8]: 61.3%
